Experimental data as given in patent US20220081422A1 (Janssen Biotech, Inc., priority 2019, published 2022).

How the values were obtained:
MOLM-13 cells = assay: MOLM-13 cellular assay (CellTiter-Glo cell viability); format: cell-based; conditions: 72 hours exposure, cell viability by CellTiter-Glo
Description: In Vitro Assay: MOLM-13 Cellular Assay
MOLM-13 cells were obtained from DSMZ and were maintained in RPMI 1640+Glutamax+25 mM HEPES (Invitrogen, catalog number 72400) supplemented with 10% heat inactivated fetal bovine serum (FBS; Invitrogen, catalog number 16140). The day prior to assay set-up, cells were pelleted, resuspended in fresh media, counted, and cells were plated at 0.4×10^6 cell/mL in a T150 flask. On the day of the assay, cells were pelleted, resuspend in fresh media, counted and seeded at 5,000 cells/well in white opaque 96-well tissue culture treated microplates (Perkin Elmer, catalog number 6005680). Cells were exposed to different concentrations of test compounds at 37° C., 5% CO2 for 72 hours immediately after seeding. Cell viability was acquired on a Perkin Elmer Envision 2104 multilabel reader using the CellTiter-Glo assay (Promega) according to the manufacturer's instructions.

human DHODH = molecular target: T1, human DHODH (Homo sapiens, UniProt Q02127); assay: DHODH enzymatic assay (DCIP absorbance, end-point); format: biochemical; conditions: purified human DHODH, DCIP as final electron acceptor, end-point mode; read-out: hDHODH IC50
T1 construct: purchased Proteros PR-0044
T1 sequence (Q02127 whole entry): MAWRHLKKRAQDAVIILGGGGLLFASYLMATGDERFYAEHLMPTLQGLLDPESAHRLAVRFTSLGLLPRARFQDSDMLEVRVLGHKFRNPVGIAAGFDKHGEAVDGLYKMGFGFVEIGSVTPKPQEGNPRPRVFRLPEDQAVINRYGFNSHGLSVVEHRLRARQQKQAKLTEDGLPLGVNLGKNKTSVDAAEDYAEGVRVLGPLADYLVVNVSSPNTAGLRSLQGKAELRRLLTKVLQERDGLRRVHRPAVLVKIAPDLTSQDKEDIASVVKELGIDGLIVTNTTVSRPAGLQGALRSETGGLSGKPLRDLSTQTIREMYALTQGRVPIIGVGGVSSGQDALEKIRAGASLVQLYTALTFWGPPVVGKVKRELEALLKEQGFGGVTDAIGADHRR
Description: In vitro Assay: DHODH enzymatic assay
To detect DHODH enzyme activities, dichloroindophenol (DCIP) is added as the final electron acceptor in the assay. DCIP can accept electrons from the reduced coenzyme Q generated in the assay, or from dihydroorotate (DHO) via FMN by binding presumably to the ubiquinone pocket. […] The assay buffer contained […], pH 7.5, 150 mM NaCl, 0.5 mM EDTA, and 0.1% Triton X-100 in MilliQ water. Substrate consisting of 20 mM DHO, 5 mM CoQ6, and 1 mM DCIP in assay buffer, initiates the reaction. […] Absorbance measurements were obtained using the BMG Phera Star plate-reading spectrophotometer. Purified human DHODH was purchased from Proteros (cat. No. PR-0044). Chemicals were purchased from Sigma-Aldrich, Teknova, and Avanti Polar Lipids. Liquid handling was performed using Labcyte Echo and Formulatrix Tempest.

| IC50 (MOLM-13 cells; Homo sapiens, MOLM-13, 72 h) | IC50 (human DHODH) | IC50 (MOLM-13 cells) | SMILES |
| --- | --- | --- | --- |
| 1.7 nM | < 0.5 nM | – | CCn1c(CO)nn(-c2nc3c(cc2F)C(=O)N(c2c(F)cccc2Cl)CN3[C@@H](C)C(F)(F)F)c1=O [Example 8, (S)-3-(2-Chloro-6-fluorophenyl)-7-(4-ethyl-3-(hydroxymethyl)-5-oxo-4,5-dihydro-1H-1,2,4-triazol-1-yl)-6-fluoro-1-(1,1,1-trifluoropropan-2-yl)-2,3-dihydropyrido[2,3-d]pyrimidin-4(1H)-one] |
| – | 2 nM | 2.96 nM | CCn1c(CO)nn(-c2cc3c(cc2F)C(=O)N(c2c(C)cnc(OC)c2Cl)CC3C(C)C)c1=O (single isomer, unassigned) [Example 66, (S*)-2-(3-Chloro-2-methoxy-5-methylpyridin-4-yl)-6-(4-ethyl-3-(hydroxymethyl)-5-oxo-4,5-dihydro-1H-1,2,4-triazol-1-yl)-7-fluoro-4-isopropyl-3,4-dihydroisoquinolin-1(2H)-one] |
| – | 2 nM | 4.66 nM | C=C(C)C1CN(c2c(F)cccc2Cl)C(=O)c2cc(F)c(-n3nc(CO)n(CC)c3=O)cc21 (single isomer, unassigned) [Example 68, (R*)-2-(2-Chloro-6-fluorophenyl)-6-(4-ethyl-3-(hydroxymethyl)-5-oxo-4,5-dihydro-1H-1,2,4-triazol-1-yl)-7-fluoro-4-(prop-1-en-2-yl)-3,4-dihydroisoquinolin-1(2H)-one] |
| 5.96 nM | 9 nM | – | CCn1c(CO)nn(-c2cc3c(cc2F)C(=O)N(c2c(C)cnc(OC)c2Cl)CN3C(C)C)c1=O [Example 32, 3-(3-Chloro-2-methoxy-5-methylpyridin-4-yl)-7-(4-ethyl-3-(hydroxymethyl)-5-oxo-4,5-dihydro-1H-1,2,4-triazol-1-yl)-6-fluoro-1-isopropyl-2,3-dihydroquinazolin-4(1H)-one] |
| 1.2 nM | 1.4 nM | – | CCn1c(CO)nn(-c2nc3c(cc2F)C(=O)N(c2c(F)cccc2Cl)CN3C(C)C)c1=O [Example 5, 3-(2-Chloro-6-fluorophenyl)-7-(4-ethyl-3-(hydroxymethyl)-5-oxo-4,5-dihydro-1H-1,2,4-triazol-1-yl)-6-fluoro-1-isopropyl-2,3-dihydropyrido[2,3-d]pyrimidin-4(1H)-one] |
| 7.2 nM | 20 nM | – | CCn1c(CO)nn(-c2ccc3c(c2)C(C(C)C)CN(c2c(F)cccc2Cl)C3=O)c1=O (racemic) [Example 13, Racemic-2-(2-Chloro-6-fluorophenyl)-6-(4-ethyl-3-(hydroxymethyl)-5-oxo-4,5-dihydro-1H-1,2,4-triazol-1-yl)-4-isopropyl-3,4-dihydroisoquinolin-1(2H)-one] |
| 1.7 nM | 11 nM | – | CCn1c(CO)nn(-c2nc3c(cc2F)C(=O)N(c2c(F)cccc2Cl)CN3C2CC2)c1=O [Example 9, 3-(2-Chloro-6-fluorophenyl)-1-cyclopropyl-7-(4-ethyl-3-(hydroxymethyl)-5-oxo-4,5-dihydro-1H-1,2,4-triazol-1-yl)-6-fluoro-2,3-dihydropyrido[2,3-d]pyrimidin-4(1H)-one] |
| – | 90 nM | 114 nM | C=C(C)[C@H]1CN(c2c(C)cc(C)nc2Cl)C(=O)c2cc(F)c(-n3nc(CO)n(CC)c3=O)cc21 (single isomer, unassigned; atropisomer 2) [Example 61, Atropisomer 2, (R*)-2-(2-Chloro-4,6-dimethylpyridin-3-yl)-6-(4-ethyl-3-(hydroxymethyl)-5-oxo-4,5-dihydro-1H-1,2,4-triazol-1-yl)-7-fluoro-4-(prop-1-en-2-yl)-3,4-dihydroisoquinolin-1(2H)-one] |
| 48.1 nM | 30 nM | – | CCn1c(CO)nn(-c2cc3c(cc2F)C(=O)N(c2c(F)cncc2C#N)CN3C(C)C)c1=O [Example 27, 4-(7-(4-Ethyl-3-(hydroxymethyl)-5-oxo-4,5-dihydro-1H-1,2,4-triazol-1-yl)-6-fluoro-1-isopropyl-4-oxo-1,4-dihydroquinazolin-3(2H)-yl)-5-fluoronicotinonitrile] |
| – | > 100 nM | 1860 nM | C=C(C)[C@H]1CN(c2c(C)cc(C)nc2Cl)C(=O)c2cc(F)c(-n3nc(CO)n(CC)c3=O)cc21 (single isomer, unassigned; atropisomer 1) [Example 59, Atropisomer 1, (R *)-2-(2-Chloro-4,6-dimethylpyridin-3-yl)-6-(4-ethyl-3-(hydroxymethyl)-5-oxo-4,5-dihydro-1H-1,2,4-triazol-1-yl)-7-fluoro-4-(prop-1-en-2-yl)-3,4-dihydroisoquinolin-1(2H)-one] |
| 0.962 nM | 0.7 nM | – | CC[C@H](C)N1CN(c2c(F)cccc2Cl)C(=O)c2cc(F)c(-n3nc(CO)n(CC)c3=O)nc21 [Example 31, (S)-1-(sec-Butyl)-3-(2-chloro-6-fluorophenyl)-7-(4-ethyl-3-(hydroxymethyl)-5-oxo-4,5-dihydro-1H-1,2,4-triazol-1-yl)-6-fluoro-2,3-dihydropyrido[2,3-d]pyrimidin-4(1H)-one] |
| < 1.69 nM | 0.3 nM | – | CCC[C@H](C)N1CN(c2c(F)cccc2Cl)C(=O)c2cc(F)c(-n3nc(CO)n(CC)c3=O)cc21 [Example 15, (S)-3-(2-Chloro-6-fluorophenyl)-7-(4-ethyl-3-(hydroxymethyl)-5-oxo-4,5-dihydro-1H-1,2,4-triazol-1-yl)-6-fluoro-1-(pentan-2-yl)-2,3-dihydroquinazolin-4(1H)-one] |

Second part, the compound before the results:

| SMILES | IC50 (MOLM-13 cells; Homo sapiens, MOLM-13, 72 h) | IC50 (human DHODH) | IC50 (MOLM-13 cells) |
| --- | --- | --- | --- |
| CCn1c(CO)nn(-c2cc3c(cc2F)C(=O)N(c2c(F)cncc2Cl)CN3C(C)C)c1=O [Example 29, 3-(3-Chloro-5-fluoropyridin-4-yl)-7-(4-ethyl-3-(hydroxymethyl)-5-oxo-4,5-dihydro-1H-1,2,4-triazol-1-yl)-6-fluoro-1-isopropyl-2,3-dihydroquinazolin-4(1H)-one] | 27.3 nM | 20 nM | – |
| CCC(C)C1CN(c2c(F)cccc2Cl)C(=O)c2cc(F)c(-n3nc(CO)n(CC)c3=O)cc21 (single isomer, unassigned) [Example 70, (S*)-4-((RS)-sec-butyl)-2-(2-chloro-6-fluorophenyl)-6-(4-ethyl-3-(hydroxymethyl)-5-oxo-4,5-dihydro-1H-1,2,4-triazol-1-yl)-7-fluoro-3,4-dihydroisoquinolin-1(2H)-one] | 14.5 nM | 6 nM | – |
| CCC[C@H](C)N1CN(c2c(F)cccc2Cl)C(=O)c2cc(F)c(-n3nc(CO)n(CC)c3=O)nc21 [Example 24, (S)-3-(2-Chloro-6-fluorophenyl)-7-(4-ethyl-3-(hydroxymethyl)-5-oxo-4,5-dihydro-1H-1,2,4-triazol-1-yl)-6-fluoro-1-(pentan-2-yl)-2,3-dihydropyrido[2,3-d]pyrimidin-4(1H)-one] | < 1.69 nM | 0.4 nM | – |
| CCn1c(CO)nn(-c2ccc3c(c2)C(C(C)C)CN(c2cccc(F)c2)C3=O)c1=O (racemic) [Example 10, Racemic-6-(4-Ethyl-3-(hydroxymethyl)-5-oxo-4,5-dihydro-1H-1,2,4-triazol-1-yl)-2-(3-fluorophenyl)-4-isopropyl-3,4-dihydroisoquinolin-1(2H)-one] | > 3 nM | 190 nM | – |
| C=C(C)[C@@H]1CN(c2c(C)cnc(OC)c2C)C(=O)c2cc(F)c(-n3nc(CO)n(CC)c3=O)cc21 (single isomer, unassigned; atropisomer 1) [Example 54, Atropisomer 1, (S*)-6-(4-Ethyl-3-(hydroxymethyl)-5-oxo-4,5-dihydro-1H-1,2,4-triazol-1-yl)-7-fluoro-2-(2-methoxy-3,5-dimethylpyridin-4-yl)-4-(prop-1-en-2-yl)-3,4-dihydroisoquinolin-1 (2H)-one] | – | 20 nM | 2.2 nM |
| CCn1c(CO)nn(-c2nc3c(cc2F)C(=O)N(c2c(F)cccc2Cl)CN3C2CCC2)c1=O [Example 7, 3-(2-chloro-6-fluorophenyl)-1-cyclobutyl-7-(4-ethyl-3-(hydroxymethyl)-5-oxo-4,5-dihydro-1H-1,2,4-triazol-1-yl)-6-fluoro-2,3-dihydropyrido[2,3-d]pyrimidin-4(1H)-one] | 1.7 nM | 2.6 nM | – |
| C=C(C)C1CN(c2c(F)cccc2Cl)C(=O)c2cc(F)c(-n3nc(CO)n(CC)c3=O)cc21 (single isomer, unassigned) [Example 69, (S*)-2-(2-Chloro-6-fluorophenyl)-6-(4-ethyl-3-(hydroxymethyl)-5-oxo-4,5-dihydro-1H-1,2,4-triazol-1-yl)-7-fluoro-4-(prop-1-en-2-yl)-3,4-dihydroisoquinolin-1(2H)-one] | – | 0.3 nM | < 1.69 nM |
| CCn1c(CO)nn(-c2cc3c(cc2F)C(=O)N(c2c(F)cccc2Cl)CN3C2CCC2)c1=O [Example 19, 3-(2-Chloro-6-fluorophenyl)-1-cyclobutyl-7-(4-ethyl-3-(hydroxymethyl)-5-oxo-4,5-dihydro-1H-1,2,4-triazol-1-yl)-6-fluoro-2,3-dihydroquinazolin-4(1H)-one] | 2.57 nM | 3 nM | – |
